# pIC50: −log10 of the molar value. Activity calls are given as the source filed them. The rule behind the calls is not given here.
# What was measured:
# Histone deacetylase 1 [1] = molecular target: T1, Histone deacetylase 1 (Homo sapiens, UniProt Q13547); experiment: Inhibition of HDAC1 (unknown origin)
# [2] = molecular target: T2, Protein deacetylase HDAC6 (Homo sapiens, UniProt Q9UBN7); experiment: Inhibition of HDAC6 (unknown origin)
# T2 sequence (Q9UBN7 whole entry): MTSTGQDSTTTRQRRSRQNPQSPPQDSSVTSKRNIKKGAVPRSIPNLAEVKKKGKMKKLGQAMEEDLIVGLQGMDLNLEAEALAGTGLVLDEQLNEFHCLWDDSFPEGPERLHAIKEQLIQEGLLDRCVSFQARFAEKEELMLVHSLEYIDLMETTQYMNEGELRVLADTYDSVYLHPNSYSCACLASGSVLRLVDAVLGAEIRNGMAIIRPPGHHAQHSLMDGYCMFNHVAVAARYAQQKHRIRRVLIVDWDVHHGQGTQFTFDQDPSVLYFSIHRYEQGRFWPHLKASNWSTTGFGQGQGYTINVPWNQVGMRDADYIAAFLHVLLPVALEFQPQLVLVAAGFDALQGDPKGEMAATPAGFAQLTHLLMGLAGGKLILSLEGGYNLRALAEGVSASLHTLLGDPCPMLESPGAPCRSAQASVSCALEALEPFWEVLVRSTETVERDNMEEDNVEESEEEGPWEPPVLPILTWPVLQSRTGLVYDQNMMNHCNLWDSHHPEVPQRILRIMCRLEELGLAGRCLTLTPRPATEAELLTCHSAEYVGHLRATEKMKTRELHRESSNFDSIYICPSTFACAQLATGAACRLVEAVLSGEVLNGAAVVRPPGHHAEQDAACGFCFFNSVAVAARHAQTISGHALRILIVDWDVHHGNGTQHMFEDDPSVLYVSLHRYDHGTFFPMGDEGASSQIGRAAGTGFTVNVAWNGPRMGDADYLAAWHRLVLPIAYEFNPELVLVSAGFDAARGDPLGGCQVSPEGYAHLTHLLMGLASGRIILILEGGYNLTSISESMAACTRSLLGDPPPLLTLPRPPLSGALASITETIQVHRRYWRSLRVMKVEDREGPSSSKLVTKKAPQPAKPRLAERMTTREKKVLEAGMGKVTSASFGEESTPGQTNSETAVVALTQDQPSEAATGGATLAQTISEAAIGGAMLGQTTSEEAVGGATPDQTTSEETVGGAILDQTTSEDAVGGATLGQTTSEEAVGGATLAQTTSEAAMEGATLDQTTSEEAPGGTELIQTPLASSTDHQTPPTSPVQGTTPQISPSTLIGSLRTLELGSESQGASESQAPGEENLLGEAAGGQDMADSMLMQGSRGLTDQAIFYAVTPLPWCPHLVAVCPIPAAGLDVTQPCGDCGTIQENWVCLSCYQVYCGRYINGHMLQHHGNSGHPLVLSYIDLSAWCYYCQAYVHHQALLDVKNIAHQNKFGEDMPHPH
# MDA-MB-231 [3] = experiment: Anti-cancer activity against human MDA-MB-231 cells assessed as decrease in PCNA level at 5 uM incubated for 48 hrs by immunoblot analysis; type: functional, cell-based
# NCI-H1299 = experiment: cells; type: functional, cell-based; settings: Homo sapiens, NCI-H1299, 48 h
# MCF7 = experiment: cells; type: functional, cell-based; settings: Homo sapiens, MCF7, 48 h
# MDA-MB-231 [4] = experiment: cells; type: functional, cell-based; settings: Homo sapiens, MDA-MB-231, 48 h
# HT-29 = experiment: cells; type: functional, cell-based; settings: Homo sapiens, HT-29, 48 h
# A549 [5] = experiment: cells; settings: Homo sapiens, A549, 48 h
# [6] = Toxicity in athymic nude Crl:NU-Foxn1nu mouse xenografted with human A549 cells assessed as animal survival at 30 mg/kg, po administered twice a week for 1 month; type: organism-based; settings: in vivo, 730 h, time 1 months
# [7] = Antiproliferative activity against human NCI-H1975 cells harboring EGFR T790M mutant incubated for 48 hrs by MTT assay; type: functional, cell-based; settings: NCI-H1975, 48 h
# Supercoiled DNA = experiment: Binding affinity to supercoiled DNA (unknown origin) assessed as DNA intercalation measured after 30 mins by gel electrophoresis; type: nucleic-acid assay
# [8] = molecular target: DNA topoisomerase 2-alpha (Homo sapiens, UniProt P11388); experiment: Inhibition of human Topo II-alpha-mediated decatenation of kDNA at 100 uM incubated for 30 mins
# Histone deacetylase 8 = molecular target: T3, Histone deacetylase 8 (Homo sapiens, UniProt Q9BY41); experiment: Inhibition of HDAC8 (unknown origin) by fluorometric assay
# T3 sequence (Q9BY41 whole entry): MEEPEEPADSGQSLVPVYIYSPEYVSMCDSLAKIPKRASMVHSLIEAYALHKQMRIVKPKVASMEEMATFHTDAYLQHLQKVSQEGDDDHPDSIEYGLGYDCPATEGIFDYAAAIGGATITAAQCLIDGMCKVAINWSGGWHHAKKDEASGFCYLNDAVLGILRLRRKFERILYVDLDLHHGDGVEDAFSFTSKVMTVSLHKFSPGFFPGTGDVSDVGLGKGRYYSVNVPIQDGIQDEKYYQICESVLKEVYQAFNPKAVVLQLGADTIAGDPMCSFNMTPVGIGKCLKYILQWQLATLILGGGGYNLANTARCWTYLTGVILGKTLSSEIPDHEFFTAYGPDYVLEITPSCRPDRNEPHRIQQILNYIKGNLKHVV
# Histone deacetylase 1 [9] = molecular target: T1, Histone deacetylase 1; experiment: Inhibition of HDAC1 extracted from human A549 nucleus incubated for 1 hr by fluorometric assay; type: cell-free
# [10] = molecular target: T2, Protein deacetylase HDAC6; experiment: Inhibition of HDAC6 (unknown origin) using acetylated-peptide substrate by fluorometric assay
# Histone deacetylase 1 [11] = molecular target: T1, Histone deacetylase 1; experiment: Inhibition of HDAC1 (unknown origin) incubated for 48 hrs
# A549 [12] = experiment: Induction of ROS generation in human A549 cells incubated for 48 hrs by Cell Rox red staining based flow cytometry; type: functional
# A549 [13] = experiment: Induction of ROS generation in human A549 cells incubated for 48 hrs by DCFH-DA staining based analysis; type: functional, cell-based
# A549 [14] = experiment: Induction of cell cycle arrest in human A549 cells assessed as accumulation at G2/M phase by PI staining based flow cytometry; type: functional
# A549 [15] = experiment: Anti-cancer activity against human A549 3D cell culture model assessed as inhibition of 3D culture initiation at sub- IC50 incubated for 21 days with replacement of medium containing compound on every seventh day; type: functional, cell-based; settings: time 21.0 day
# [16] = molecular target: T4, DNA topoisomerase 1 (Homo sapiens) (UniProt P11387); experiment: Inhibition of human Topo I-mediated relaxation of supercoiled DNA preincubated for 30 mins followed by proteinase K addition measured after 30 mins by gel electrophoresis; settings: time 60.0 min
# T4 sequence (whole entry): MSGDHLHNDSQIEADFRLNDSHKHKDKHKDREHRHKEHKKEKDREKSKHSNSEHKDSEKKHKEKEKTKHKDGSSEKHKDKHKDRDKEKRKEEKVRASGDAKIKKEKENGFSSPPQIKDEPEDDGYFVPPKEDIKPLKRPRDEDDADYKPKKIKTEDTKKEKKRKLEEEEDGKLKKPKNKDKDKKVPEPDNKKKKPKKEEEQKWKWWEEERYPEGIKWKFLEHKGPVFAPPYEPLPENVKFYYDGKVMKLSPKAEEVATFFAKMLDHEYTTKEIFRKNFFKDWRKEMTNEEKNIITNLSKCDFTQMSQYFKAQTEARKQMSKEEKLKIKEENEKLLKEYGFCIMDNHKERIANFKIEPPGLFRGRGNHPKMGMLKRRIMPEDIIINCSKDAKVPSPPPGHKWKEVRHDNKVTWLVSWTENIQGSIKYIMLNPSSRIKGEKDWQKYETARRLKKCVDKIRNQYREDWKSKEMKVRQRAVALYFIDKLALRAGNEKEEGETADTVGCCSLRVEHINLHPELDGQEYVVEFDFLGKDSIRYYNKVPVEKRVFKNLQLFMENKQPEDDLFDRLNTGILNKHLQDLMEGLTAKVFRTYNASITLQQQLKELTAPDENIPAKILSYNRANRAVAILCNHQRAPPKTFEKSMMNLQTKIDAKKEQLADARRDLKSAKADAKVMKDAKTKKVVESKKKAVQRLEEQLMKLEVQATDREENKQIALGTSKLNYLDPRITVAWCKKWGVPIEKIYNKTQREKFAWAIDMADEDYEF
# A549 [17] = experiment: Anti-cancer activity against human A549 3D cell culture model at sub- IC50 incubated for 17 days with replacement of medium containing compound on every third day; type: functional, cell-based; settings: time 17.0 day
# A549 [18] = experiment: Induction of cell cycle arrest in human A549 cells assessed as accumulation at G1 phase by PI staining based flow cytometry; type: functional
# A549 [19] = experiment: Effect on mitochondrial membrane permeability in human A549 cells assessed as decrease in red to green fluorescence ratio at sub-IC50 incubated for 48 hrs by JC-1 staining based analysis; type: functional, cell-based
# A549 [20] = experiment: Induction of apoptosis in human A549 cells by Annexin-V/PI staining based flow cytometry; type: functional, cell-based
# T1 sequence (Q13547 whole entry): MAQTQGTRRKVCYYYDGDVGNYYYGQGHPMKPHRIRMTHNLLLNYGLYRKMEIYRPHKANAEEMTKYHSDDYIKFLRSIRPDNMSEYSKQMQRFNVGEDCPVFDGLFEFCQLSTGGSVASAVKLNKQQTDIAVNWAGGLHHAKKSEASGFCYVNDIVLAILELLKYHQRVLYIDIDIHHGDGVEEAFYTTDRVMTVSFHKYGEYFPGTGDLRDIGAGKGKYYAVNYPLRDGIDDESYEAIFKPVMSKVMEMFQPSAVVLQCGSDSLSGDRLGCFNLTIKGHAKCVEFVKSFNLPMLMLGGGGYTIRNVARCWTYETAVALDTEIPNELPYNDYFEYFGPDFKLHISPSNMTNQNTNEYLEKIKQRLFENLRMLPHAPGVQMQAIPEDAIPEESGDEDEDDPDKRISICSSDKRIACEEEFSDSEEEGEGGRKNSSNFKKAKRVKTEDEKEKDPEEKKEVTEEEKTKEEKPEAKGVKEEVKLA
# Chain of DNA topoisomerase 2-alpha (P11388 whole entry): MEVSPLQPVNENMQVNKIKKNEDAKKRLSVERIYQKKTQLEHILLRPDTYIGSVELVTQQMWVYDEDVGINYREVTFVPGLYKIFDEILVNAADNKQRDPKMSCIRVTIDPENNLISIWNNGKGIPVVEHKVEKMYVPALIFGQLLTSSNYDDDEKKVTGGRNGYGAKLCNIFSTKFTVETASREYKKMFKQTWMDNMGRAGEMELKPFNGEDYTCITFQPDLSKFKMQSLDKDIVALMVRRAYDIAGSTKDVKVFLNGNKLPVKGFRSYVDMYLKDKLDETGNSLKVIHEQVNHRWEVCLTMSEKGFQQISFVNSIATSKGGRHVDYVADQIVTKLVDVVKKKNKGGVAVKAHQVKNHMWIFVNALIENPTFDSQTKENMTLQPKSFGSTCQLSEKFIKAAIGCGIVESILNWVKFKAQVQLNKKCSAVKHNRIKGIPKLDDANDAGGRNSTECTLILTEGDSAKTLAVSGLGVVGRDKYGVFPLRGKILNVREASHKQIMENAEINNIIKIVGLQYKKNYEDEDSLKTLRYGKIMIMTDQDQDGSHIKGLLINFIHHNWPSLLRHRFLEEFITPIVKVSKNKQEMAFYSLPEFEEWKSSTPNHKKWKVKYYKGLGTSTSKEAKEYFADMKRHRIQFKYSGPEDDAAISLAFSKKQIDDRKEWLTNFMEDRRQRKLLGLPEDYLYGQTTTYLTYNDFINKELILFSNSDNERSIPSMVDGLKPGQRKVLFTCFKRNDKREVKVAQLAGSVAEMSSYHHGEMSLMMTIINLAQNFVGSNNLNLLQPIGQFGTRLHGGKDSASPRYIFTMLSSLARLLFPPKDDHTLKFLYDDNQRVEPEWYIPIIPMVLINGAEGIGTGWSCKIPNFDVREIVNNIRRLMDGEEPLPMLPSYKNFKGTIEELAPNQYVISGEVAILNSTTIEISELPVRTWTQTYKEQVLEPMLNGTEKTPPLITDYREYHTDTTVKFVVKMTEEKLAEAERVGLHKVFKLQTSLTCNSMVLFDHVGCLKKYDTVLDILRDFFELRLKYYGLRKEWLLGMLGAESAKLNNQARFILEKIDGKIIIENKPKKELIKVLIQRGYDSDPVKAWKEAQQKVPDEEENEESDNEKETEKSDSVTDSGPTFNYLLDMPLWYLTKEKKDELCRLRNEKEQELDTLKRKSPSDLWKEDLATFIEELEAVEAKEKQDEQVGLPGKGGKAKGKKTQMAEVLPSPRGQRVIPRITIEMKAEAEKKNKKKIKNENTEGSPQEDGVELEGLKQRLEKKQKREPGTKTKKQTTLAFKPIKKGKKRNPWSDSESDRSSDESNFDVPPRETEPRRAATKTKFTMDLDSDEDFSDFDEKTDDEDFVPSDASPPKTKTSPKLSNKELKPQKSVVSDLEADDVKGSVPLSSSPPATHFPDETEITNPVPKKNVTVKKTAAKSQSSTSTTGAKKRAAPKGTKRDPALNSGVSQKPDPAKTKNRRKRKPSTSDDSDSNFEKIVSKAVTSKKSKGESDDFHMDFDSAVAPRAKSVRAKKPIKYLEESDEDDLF
Structure (SMILES),pIC50 (NCI-H1299),pIC50 (MCF7),pIC50 (MDA-MB-231 [4]),pIC50 (HT-29),pIC50 (A549 [5]),Activity (Supercoiled DNA),inhibition [8],pIC50 (Histone deacetylase 8),pIC50 (Histone deacetylase 1 [9]),pIC50 [10],also measured
CN1c2ccc(NCc3ccc(-c4noc(CC(=O)NO)n4)cc3)cc2C(O)N2CCc3c([nH]c4ccc(O)cc34)C12 (stereo unspecified),–,–,–,–,–,–,–,–,–,–,pIC50 (Histone deacetylase 1 [1]): 7.62; pIC50 [2]: 7.89
O=C(CCCCCn1cc(-c2ccc(Nc3c4ccccc4nc4ccccc34)cc2)nn1)NO,–,–,–,–,–,–,–,–,–,–,pIC50 (Histone deacetylase 1 [1]): 8.41; pIC50 [2]: 8.54
CC[C@@]1(O)C(=O)OCc2c1cc1n(c2=O)Cc2cc3ccccc3nc2-1 [CAMPTOTHECIN],5.28,5.25,5.13,5.16,5.16,–,–,–,–,–,Activity (MDA-MB-231 [3]): inactive
COc1cc([C@@H]2c3cc4c(cc3[C@@H](O[C@@H]3O[C@@H]5CO[C@@H](C)O[C@H]5[C@H](O)[C@H]3O)[C@H]3COC(=O)[C@H]23)OCO4)cc(OC)c1O [ETOPOSIDE],–,–,–,–,–,–,–,–,–,–,Activity [6]: Non-toxic; pIC50 [7]: 5.79
O=C(CCCCCCOc1ccc(-c2ccc3ccccc3n2)cc1)NO,5.61,5.32,5.42,5.46,6.07,inactive,Active; Observed As More Active Than Etoposide,< 6.30,7.18,6.56,–
O=C(CCCCCCOc1ccc2nc(-c3ccccc3)ccc2c1)NO,5.37,5.03,5.05,5.08,5.40,inactive,Active; Observed As More Active Than Etoposide,< 6.30,7.32,< 6.30,–
CC[C@@]1(O)C(=O)OCc2c1cc1n(c2=O)Cc2c-1nc1ccccc1c2/C=N\OCCCCCCC(=O)NO,–,–,–,–,–,–,–,–,–,–,pIC50 (Histone deacetylase 1 [1]): 8.28; pIC50 [2]: 8.28
COc1cc(-c2ccc3cc(OCCCCCCC(=O)NO)ccc3n2)cc(OC)c1OC,5.32,5.33,5.23,5.30,5.43,inactive,Active,< 6.30,7.16,6.62,–
COc1cc(-c2ccc3cc(OCCCCCC(=O)NO)ccc3n2)cc(OC)c1OC,5.49,5.28,5.20,5.72,5.73,inactive,Active,< 6.30,7.36,< 6.30,–
O=C(CCCCCCC(=O)Nc1ccccc1)NO [VORINOSTAT],–,–,–,–,5.11,–,–,–,–,–,Activity [6]: Non-toxic; pIC50 [7]: 5.99
O=C(CCCCCOc1ccc(-c2nc3ccccc3c3cc(-c4ccccc4)nn23)cc1)NO,–,–,–,–,–,–,–,–,–,–,pIC50 (Histone deacetylase 1 [11]): 6.10
COc1ccc(-c2ccc3cc(OCCCCCCC(=O)NO)ccc3n2)cc1,5.63,5.84,6.01,5.41,5.80,inactive,Active; Observed As More Active Than Etoposide,< 6.30,7.55,< 6.30,Activity (A549 [12]): Active; Activity (A549 [13]): Active; Activity (A549 [14]): Active; inhibition (A549 [15]): Active; inhibition [16]: Active; Activity (A549 [17]): Active; Exhibited Commendable Decrease In Mass Of 3D Sphere; Activity (A549 [18]): Active; Activity (A549 [19]): Active; Result Signifies That Cell Death Induced Via Mitochondrial-Dependent Pathways; Activity (A549 [20]): Active
COc1ccc(-c2ccc3ccc(OCCCCCC(=O)NO)cc3n2)cc1I,5.70,5.54,5.83,5.54,5.75,inactive,Active; Observed As More Active Than Etoposide,< 6.30,7.47,7.32,Activity (A549 [12]): Active; Activity (A549 [13]): Active; Activity (A549 [14]): Active; inhibition (A549 [15]): Active; inhibition [16]: Active; Activity (A549 [17]): Active; Exhibited Potent Effect; Activity (A549 [18]): Active; Activity (A549 [19]): Not active; Result Signifies That Cell Death Induced Via Mitochondrial-Independent Pathways; Activity (A549 [20]): Active

# Reference: ChEMBL document CHEMBL6121021, “Design and Synthesis of Topoisomerases-Histone Deacetylase Dual Targeted Quinoline-Bridged Hydroxamates as Anticancer Agents” (J Med Chem, 2025)
